# From PMC6152226, “Composition and Antioxidant, Antienzymatic and Antimicrobial Activities of Volatile Molecules from Spanish Salvia lavandulifolia (Vahl) Essential Oils” (Molecules : A Journal of Synthetic Chemistry and Natural …, 2017)
# Values joined by “and” are separate entries in the source; they are usually repeats but may differ in a detail not shown here. Identical values can stand only once. Like-named read-outs stand apart in the source and are kept apart here.
# Tests used:
# [1] = Oxygen radical absorbance capacity (ORAC) assay; details: individual compounds, maximum assay concentration 100 mM
# Procedure: (§1) Five antioxidant methods were performed with SlEOs and their main individual compounds in triplicate. In the oxygen radical absorbance capacity (ORAC) assay, peroxyl radicals are produced by 2,2′-Azobis(2-methylpropionamidine) dihydrochloride (AAPH), which reacts with fluorescein giving a non-fluorescent compound [61]. The antioxidants are able to scavenge these peroxyl radicals. Trolox was used as the reference antioxidant. The 2,2-diphenyl-1-picrylhydrazyl (DPPH) and 2,2′-azino-bis(3-ethylbenzothiazoline-6-sulphonic acid) (ABTS) methods measure the bleaching produced by the reduction of the coloured DPPH and ABTS radicals. Trolox was used as the reference antioxidant. The RdP method measure the ability to reduce ferric ions, according to the method of Oyaizu. Ascorbic acid was the reference antioxidant used in this method. The ChP method measured the ability to chelate Fe^2+ ion, following the method of Miguel et al.. EDTA was used as reference antioxidant. The SlEOs were diluted in 100% ethanol in the DPPH, ABTS, RdP and ChP methods, whereas in the ORAC method, SlEOs were diluted in 15% ethanol to obtain a final concentration of 5% ethanol in the reaction medium. All measurements were made at the end-point of the reaction, except in the ORAC method (Figure S5).
# DPPH radical method = details: individual compounds; maximum assay concentration 100 mM
# Procedure: as §1
# ABTS radical method = details: individual compounds; maximum assay concentration 100 mM
# Procedure: as §1
# [2] = Reducing power (RdP) method; details: individual compounds; maximum assay concentration 100 mM
# Procedure: as §1
# [3] = Chelating power (ChP) method; details: individual compounds; maximum assay concentration 100 mM
# Procedure: as §1
# LOX = target: T1, LOX (Glycine max, UniProt P08170); experiment: LOX inhibition assay; type: biochemical, Glycine max (soybean); details: for DI (%) of LOX: at 514.2 µg/mL, could not reach 50% inhibition
# T1 construct: purchased Sigma-Aldrich
# T1 sequence (P08170 whole entry): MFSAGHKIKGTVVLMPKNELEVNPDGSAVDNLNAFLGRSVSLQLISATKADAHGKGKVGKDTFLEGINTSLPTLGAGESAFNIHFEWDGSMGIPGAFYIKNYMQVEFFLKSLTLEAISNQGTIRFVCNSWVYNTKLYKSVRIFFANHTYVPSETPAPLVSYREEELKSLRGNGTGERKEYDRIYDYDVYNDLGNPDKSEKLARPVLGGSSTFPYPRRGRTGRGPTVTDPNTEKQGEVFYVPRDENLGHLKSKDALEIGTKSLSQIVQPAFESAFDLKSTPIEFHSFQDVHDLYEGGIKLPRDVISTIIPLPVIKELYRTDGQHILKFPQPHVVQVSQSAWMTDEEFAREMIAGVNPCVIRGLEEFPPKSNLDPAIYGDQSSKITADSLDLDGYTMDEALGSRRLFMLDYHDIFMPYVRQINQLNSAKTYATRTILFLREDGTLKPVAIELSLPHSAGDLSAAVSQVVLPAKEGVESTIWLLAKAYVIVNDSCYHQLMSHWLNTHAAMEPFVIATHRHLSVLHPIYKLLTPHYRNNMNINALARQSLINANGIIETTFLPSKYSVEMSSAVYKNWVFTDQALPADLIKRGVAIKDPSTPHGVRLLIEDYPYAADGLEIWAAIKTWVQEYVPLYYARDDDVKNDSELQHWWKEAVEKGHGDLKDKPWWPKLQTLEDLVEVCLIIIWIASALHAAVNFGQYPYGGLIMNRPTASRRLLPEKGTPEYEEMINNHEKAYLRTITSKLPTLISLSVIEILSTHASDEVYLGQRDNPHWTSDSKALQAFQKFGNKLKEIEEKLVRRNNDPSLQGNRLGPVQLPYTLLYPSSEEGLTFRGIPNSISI
# Procedure: A LOX preparation from Glycine max (soybean) was acquired from Sigma-Aldrich. LOX inhibitory activity was determined as previously reported, based on the absorption at 234 nm of the hydroperoxyde conjugated dienes (ε = 25,000 M^−1 cm^−1), which are generated from the oxidation of linoleic acid in the presence of oxygen and LOX. This assay was carried out on a double beam Lambda 35 spectrophotometer (PerkinElmer, Madrid, Spain) with the UV-Winlab software, at 25 °C.
# (§2) The DI in both antienzymatic assays were calculated using Equation (1):(1) DI (%)= ν0−νi/ν0 × 100 where v0 and v1 are the steady state rates without and with inhibitor, respectively. The inhibitions of LOX were reported as DI at 150 µg/mL of each SlEO. […] To calculate the IC50 values, data of DI (%) of seven different concentrations of each SlEO were plotted and fitted by non-linear regression according to Equation (2) using Sigma Plot software (systatsoftware.com) (Figure S6). The inhibitions of LOX and AChE by individual compounds were reported as IC50 or DI, depending on their inhibition capacities and solubilities.
# (§3) (2) DI (%)= DImax [I]0/IC50+ [I]0
# AChE VI-S = target: T2, AChE VI-S (Electrophorus electricus, UniProt O42275); experiment: biochemical; details: for concentration at which 15% inhibition of AChE reached: IC50 not calculable due to low water solubility
# T2 construct: purchased Sigma-Aldrich
# T2 sequence (O42275 24-633): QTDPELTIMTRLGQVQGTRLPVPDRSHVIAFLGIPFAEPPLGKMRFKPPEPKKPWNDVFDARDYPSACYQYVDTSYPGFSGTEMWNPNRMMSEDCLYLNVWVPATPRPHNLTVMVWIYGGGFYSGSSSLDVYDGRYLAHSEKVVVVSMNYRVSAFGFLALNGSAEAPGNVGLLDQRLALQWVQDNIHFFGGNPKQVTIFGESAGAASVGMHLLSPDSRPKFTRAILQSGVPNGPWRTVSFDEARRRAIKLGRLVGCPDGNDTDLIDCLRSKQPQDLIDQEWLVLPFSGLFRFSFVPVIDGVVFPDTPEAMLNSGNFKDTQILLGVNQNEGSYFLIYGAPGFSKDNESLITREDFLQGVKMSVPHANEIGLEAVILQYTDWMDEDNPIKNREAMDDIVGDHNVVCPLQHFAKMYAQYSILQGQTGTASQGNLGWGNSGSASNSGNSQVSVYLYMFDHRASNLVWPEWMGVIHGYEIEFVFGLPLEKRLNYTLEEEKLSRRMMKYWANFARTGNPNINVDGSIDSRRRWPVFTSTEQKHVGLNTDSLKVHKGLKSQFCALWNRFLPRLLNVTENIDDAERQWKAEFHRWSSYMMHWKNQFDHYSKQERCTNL
# Procedure: AChE VI-S from Electrophorus electricus was purchased from Sigma-Aldrich. AChE inhibitory activity was measured in triplicate using a 96-well microplate reader at 25 °C, according to Ellman’s method. This enzyme hydrolyzes acetylthiocholine to acetate and thiocholine, which reacts with 5,5-dithio-bis-(2-nitrobenzoic acid) (DTNB) producing a coloured compound with absorbance at 412 nm. The reaction was measured for 10 min at 25 °C, using a 96-well microplate reader. SlEOs were diluted in 15% ethanol, to obtain a final concentration of 5% ethanol in the reaction medium.
# as §2, §3
# [4] = system: Escherichia coli ATCC 8739; experiment: Broth microdilution MIC and MBC; type: cell-based
# Procedure: (§4) The following test microorganisms used in this work were acquired from Sigma-Aldrich: Pseudomonas aeruginosa ATCC 9027, Escherichia coli ATCC 8739, Staphylococcus aureus ATCC 6538, and Candida albicans ATCC 10231. The stock cultures were preserved in TSB or YPD with 15% glycerol, for bacteria and yeast cells, respectively, at −80 °C. Isolated colonies from an 18- to 24-h agar plate were transferred to MHB for bacteria and RPMI-1640 for C. albicans.
# (§5) MIC were determined using the broth microdilution method in 96-well microplates, according to the M07-A10 [69] standard for bacteria and the M27-A3 [70] for Candida. Briefly, two-fold dilutions of a 40 µL/mL SlEOs were prepared to obtain a final concentration range of 0.08–20 µL/mL with 0.5% Tween®80 and 2.5% DMSO. The antimicrobial activities of main compounds were also tested in the concentration range of 0.12–15 mM with 0.5% Tween®80 and 2.5% DMSO as solvent. The final strain concentration was 5 × 10^5 CFU/mL in MHB for the bacteria and 0.5−2.5 × 10^3 in RPMI-1640 for the yeast. These plates were incubated for 24 h for bacteria and 48 h for Candida, both at 35 ± 1 °C, under aerobic conditions on a plate shaker at 100 rpm. Streptomycin (0.06–8.00 µg/mL) and fluconazole (0.13–16 µg/mL) were used as reference antibacterial and antifungal compound, respectively. […] MIC is defined as the lowest concentration of EO or individual compound with no visible growth of microorganisms, at the end of the incubation period. […] All determinations were carried out in triplicate.
# [5] = system: Staphylococcus aureus ATCC 6538; experiment: Broth microdilution MIC and MBC; type: cell-based
# Procedure: as §4, §5
# [6] = system: Candida albicans ATCC 10231; experiment: Broth microdilution MIC and MFC; type: cell-based
# Procedure: as §4, §5
SMILES,ORAC [1],DPPH (DPPH radical method),ABTS (ABTS radical method),RdP [2],ChP [3],DI (%) of LOX (LOX),"MIC ([4]; ATCC8739, 24 h, read-out: MIC)","MBC ([4]; ATCC8739, read-out: MBC)","MIC ([5]; ATCC6538, 24 h, read-out: MIC)","MBC ([5]; ATCC6538, read-out: MBC)","MIC ([6]; ATCC10231, 48 h, read-out: MIC)","MFC ([6]; ATCC10231, read-out: MFC)",other results
"CC12CCC(CC1)C(C)(C)O2 [1,8-Cineole]",N/D (Activity lower than 0.05 units at a maximum assay concentration of 100 mM),N/D (Activity lower than 0.05 units at a maximum assay concentration of 100 mM),N/D (Activity lower than 0.05 units at a maximum assay concentration of 100 mM),N/D (Activity lower than 0.05 units at a maximum assay concentration of 100 mM),1.1 ± 0.1 µmol EDTAE/mmol X,30.9 ± 1.1%,> 2300 mg/L,> 2300 mg/L,> 2300 mg/L,> 2300 mg/L,> 2300 mg/L,> 2300 mg/L,"ORAC ([1]; listed as 1,8-cineole): did not show any ORAC antioxidant activity; IC50 (AChE VI-S): 228 µM and 227 µM"
C=C1C2CCC(C2)C1(C)C (stereo not shown) [Camphene],N/D (Activity lower than 0.05 units at a maximum assay concentration of 100 mM),N/D (Activity lower than 0.05 units at a maximum assay concentration of 100 mM),0.1 ± 0.0 µmol TE/mmol X,0.5 ± 0.0 µmol AAE/mmol X,1.6 ± 0.1 µmol EDTAE/mmol X,–,–,–,–,–,–,–,"concentration at which 15% inhibition of AChE reached (AChE VI-S): 42.4 ± 3.7 µg/mL; MBC ([4]; ATCC8739): > 2000 mg/L; MIC ([4]; ATCC8739, 24 h): > 2000 mg/L; MBC ([5]; ATCC6538): > 2000 mg/L; MIC ([5]; ATCC6538, 24 h): > 2000 mg/L; MFC ([6]; ATCC10231): > 2000 mg/L; MIC ([6]; ATCC10231, 48 h): > 2000 mg/L"
CC12CCC(CC1=O)C2(C)C (stereo not shown) [Camphor],N/D (Activity lower than 0.05 units at a maximum assay concentration of 100 mM),N/D (Activity lower than 0.05 units at a maximum assay concentration of 100 mM),N/D (Activity lower than 0.05 units at a maximum assay concentration of 100 mM),N/D (Activity lower than 0.05 units at a maximum assay concentration of 100 mM),N/D (Activity lower than 0.05 units at a maximum assay concentration of 100 mM),–,> 2300 mg/L,> 2300 mg/L,> 2300 mg/L,> 2300 mg/L,> 2300 mg/L,> 2300 mg/L,ORAC ([1]; listed as camphor): did not show any ORAC antioxidant activity; IC50 (LOX): 2740 µM
C=C(C)[C@H]1CC=C(C)CC1 [Limonene],128.0 ± 10.8 µmol TE/mmol X,N/D (Activity lower than 0.05 units at a maximum assay concentration of 100 mM),0.6 ± 0.0 µmol TE/mmol X,N/D (Activity lower than 0.05 units at a maximum assay concentration of 100 mM),5.9 ± 0.4 µmol EDTAE/mmol X,–,–,–,–,–,–,–,IC50LOX (LOX): 116.1 ± 3.3 mg/L; MBC [4]: 2000 mg/L; MIC ([4]; 24 h): 2000 mg/L; MBC [5]: 300 mg/L; MIC ([5]; 24 h): 300 mg/L; MFC [6]: 1000 mg/L; MIC ([6]; 48 h): 1000 mg/L
C=CC(C)(O)CCC=C(C)C (stereo not shown) [Linalool],341.9 ± 18.5 µmol TE/mmol X,N/D (Activity lower than 0.05 units at a maximum assay concentration of 100 mM),0.1 ± 0.0 µmol TE/mmol X,N/D (Activity lower than 0.05 units at a maximum assay concentration of 100 mM),96.9 ± 5.8 µmol EDTAE/mmol X,–,1100 mg/L,2300 mg/L,600 mg/L,1100 mg/L,2300 mg/L,2300 mg/L,IC50 (LOX): 3350 µM
CC1=CCC(O)(C(C)C)CC1 (stereo not shown) [Terpinen-4-ol],356.0 ± 13.6 µmol TE/mmol X,N/D (Activity lower than 0.05 units at a maximum assay concentration of 100 mM),0.3 ± 0.0 µmol TE/mmol X,N/D (Activity lower than 0.05 units at a maximum assay concentration of 100 mM),1.7 ± 0.1 µmol EDTAE/mmol X,29.6 ± 1.0%,2300 mg/L,2300 mg/L,1100 mg/L,2300 mg/L,> 2300 mg/L,> 2300 mg/L,concentration at which 15% inhibition of AChE reached (AChE VI-S): 582.4 ± 38.1 µg/mL
CC1=CCC2CC1C2(C)C (stereo not drawn) [α-Pinene],N/D (Activity lower than 0.05 units at a maximum assay concentration of 100 mM),N/D (Activity lower than 0.05 units at a maximum assay concentration of 100 mM),N/D (Activity lower than 0.05 units at a maximum assay concentration of 100 mM),N/D (Activity lower than 0.05 units at a maximum assay concentration of 100 mM),16.6 ± 1.1 µmol EDTAE/mmol X,–,500 mg/L,1000 mg/L,2100 mg/L,> 2100 mg/L,500 mg/L,500 mg/L,IC50 (AChE VI-S): 3270 µM
CC1=CC[C@@H](C(C)(C)O)CC1 [α-Terpineol],310.0 ± 16.6 µmol TE/mmol X,N/D (Activity lower than 0.05 units at a maximum assay concentration of 100 mM),0.2 ± 0.0 µmol TE/mmol X,N/D (Activity lower than 0.05 units at a maximum assay concentration of 100 mM),4.9 ± 0.3 µmol EDTAE/mmol X,17.4 ± 0.2%,2400 mg/L,2400 mg/L,600 mg/L,1100 mg/L,> 2400 mg/L,> 2400 mg/L,–
